The numbers were not newly measured in patent US11969522B2, “Use of immune modulators to improve nerve regeneration” (The Board of Regents of the University of Texas System, priority 2019, dated 2024), which cites them from elsewhere.

Series [1] relates to hematopoietic stem cells. The note with it: animal and human studies.
Series [2] deals with CXCR4. The note with it: chronic exposure, rhesus macaques.

Consider `c1cc(CN2CCCNCCNCCCNCC2)ccc1CN1CCCNCCNCCCNCC1` [Plerixafor], for which the “hematopoietic stem cell mobilization” value in series [1] is reported as “very efficient inducer of hematopoietic stem cell mobilization”.
Turning to `CCCCCc1cc(O)c2c(c1)OC(C)(C)[C@@H]1CCC(C)=C[C@@H]21` [THC], in series [2], the “T lymphocyte CXCR4 expression on both CD4+ and CD8+ T lymphocytes” value was “increase”.
